Data as given in patent US8632612B2, “Compositions for dyeing keratin fibers” (Segetis, Inc., priority 2010, dated 2014).

Legend:
[1] = Dissolution of hair dye moieties in neat ketal solvents and storage at room temperature (Example 7); type: physicochemical
Excerpt: The respective hair dye compositions and their methods of manufacturing are discussed in detail below.

[2] = Saturated solubility of oxidation dye intermediates in hair dye formulations (UV-Vis against calibration curve); settings: 10 minutes stirring, three replications

Compound | dissolution in ketal ([1]; 10% solids in Bu-LGK at 80° C. with agitation) | dissolution in ketal ([1]; 10% solids in Et-LGK at 80° C. with agitation) | dissolution in ketal ([1]; 10% solids in Et-LPK at room temperature with agitation) | Average Solubility ([2]; in formulation 5A (7% Et-LGK), pH 10.2, 27° C.) | Average Solubility ([2]; in formulation 5B (7% Et-LGK), pH 8.5, 27° C.) | Average Solubility ([2]; in formulation 6A (7% Et-LPK), pH 10.2, 27° C.) | Average Solubility ([2]; in formulation 6B (7% Et-LPK), pH 8.5, 27° C.) | dissolution in ketal ([1]; 1% solids in Et-LPK at 80° C.) | solubility after storage ([1]; 5% and 1% solids in Et-LPK, storage at room temperature) | dissolution in ketal ([1]; 5% solids in Bu-LGK at 80° C.) | solubility after storage ([1]; 5% solids in Et-LGK (dissolved at 80° C.), 24 hours of storage at room temperature) | dissolution in ketal ([1]; 5% solids in Et-LGK at 80° C.) | dissolution in ketal ([1]; 5% solids in Et-LPK at 80° C.) | dissolution in ketal ([1]; 25% solids in Bu-LGK at 80° C.) | dissolution in ketal ([1]; 5% solids in Et-LGK at room temperature)
Oc1cccc(O)c1 [Resorcinol] | dissolved | dissolved | dissolved |  |  |  |  |  |  |  |  |  |  |  | 
Nc1ccc(N)cc1 [p-phenylenediamine] |  |  |  | 0.07 % wt./wt. | 0.07 % wt./wt. | 0 % wt./wt. | <0.01 % wt./wt. | did not completely dissolve | a precipitant remained | dissolved | still soluble | dissolved | did not completely dissolve | partially dissolved | 
Nc1cccc(O)c1 [m-Aminophenol] |  |  |  |  |  |  |  |  |  |  |  |  | dissolved |  | dissolved
